Results reported in ChEMBL document CHEMBL2074471, “Electrogenic properties and substrate specificity of the polyspecific rat cation transporter rOCT1” (J Biol Chem, 1996).

What was measured:
[1] = target: T1, Solute carrier family 22 member 1 (Rattus norvegicus, UniProt Q63089); assay: TP_TRANSPORTER: uptake (electrogenesis) in Xenopus laevis oocytes; format: functional, cell-based; details: oocyte
T1 sequence (Q63089 whole entry): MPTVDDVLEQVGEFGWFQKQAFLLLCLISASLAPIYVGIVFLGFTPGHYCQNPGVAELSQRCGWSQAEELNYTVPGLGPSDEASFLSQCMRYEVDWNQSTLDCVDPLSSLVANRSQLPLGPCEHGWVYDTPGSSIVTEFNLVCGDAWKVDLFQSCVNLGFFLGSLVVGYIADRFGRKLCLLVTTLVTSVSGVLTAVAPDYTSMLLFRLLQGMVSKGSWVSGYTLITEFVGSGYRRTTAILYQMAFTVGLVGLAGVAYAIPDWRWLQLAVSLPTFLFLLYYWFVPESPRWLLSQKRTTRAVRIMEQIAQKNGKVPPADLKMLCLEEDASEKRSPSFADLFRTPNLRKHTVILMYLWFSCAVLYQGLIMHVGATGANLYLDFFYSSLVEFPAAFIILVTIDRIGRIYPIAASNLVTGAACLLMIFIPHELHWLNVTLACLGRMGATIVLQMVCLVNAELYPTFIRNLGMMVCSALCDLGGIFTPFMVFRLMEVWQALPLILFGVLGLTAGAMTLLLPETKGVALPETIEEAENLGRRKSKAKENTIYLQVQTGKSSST

[2] = substrate: CC[N+](CC)(CC)CC; assay: cells, lysate or membranes named
[3] = substrate: C[n+]1ccc(-c2ccccc2)cc1; assay: (§1) TP_TRANSPORTER: uptake in Xenopus laevis oocytes; format: functional, cell-based, Oocyte
[4] = substrate: CNC(=O)c1cccnc1; assay: as §1; format: functional, cell-based, Oocyte

`CC[n+]1c(CC2C=C(C)N=C(c3ccccc3)N2C)ccc2ccccc21.[Cl-]` (configuration not stated) [Cyanine-863] was tested, and the Activity [1] was “substrate [+]”.

In the case of `CC(=O)O[C@H]1C[C@@H]2CC[C@@H]3[C@H](CC[C@@]4(C)[C@H]3C[C@H]([N+]3(C)CCCCC3)[C@@H]4OC(C)=O)[C@@]2(C)C[C@@H]1[N+]1(C)CCCCC1` [PANCURONIUM], the Activity [1] is reported as “substrate [+]”.

In the case of `NCCCCNCCCN` [SPERMIDINE], the Activity [1] is reported as “substrate [+]”.

`NCCCNCCCCNCCCN` [SPERMINE] was tested, and the Activity [1] was “substrate [+]”.

B1: Solute carrier family 22 member 1 (Rattus norvegicus) (protein)
chain: T1 sequence (Q63089 whole entry)
With B1 the Km [2] was 35 µM, the Km [3] was 9.6 µM and the Km [4] was 340 µM.
